In PubChem BioAssay (NCI):
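These data come from cells grown in 96-well plates and exposed to compound for 48 hours at five concentrations. TGI denotes the concentration required for complete inhibition of growth.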

Tests used:
Test in all cases: NCI tumour cell line growth inhibition, 48 h
A498 renal = tested on: A498 renal
DU-145 prostate = tested on: DU-145 prostate
EKVX NSCLC = tested on: EKVX NSCLC
HOP-92 NSCLC = tested on: HOP-92 NSCLC
KM12 colon = tested on: KM12 colon
MALME-3M melanoma = tested on: MALME-3M melanoma
MDA-N = tested on: MDA-N
SF-295 CNS = tested on: SF-295 CNS
SNB-19 CNS = tested on: SNB-19 CNS
T-47D breast = tested on: T-47D breast
U251 CNS = tested on: U251 CNS
UACC-257 melanoma = tested on: UACC-257 melanoma
UO-31 renal = tested on: UO-31 renal
CAKI-1 renal = tested on: CAKI-1 renal
HCC-2998 colon = tested on: HCC-2998 colon
OVCAR-4 ovarian = tested on: OVCAR-4 ovarian
SK-MEL-5 melanoma = tested on: SK-MEL-5 melanoma
COLO 205 colon = tested on: COLO 205 colon

Row | Structure (SMILES) | TGI (A498 renal) [µM] | TGI (DU-145 prostate) [µM] | TGI (EKVX NSCLC) [µM] | TGI (HOP-92 NSCLC) [µM] | TGI (KM12 colon) [µM] | TGI (MALME-3M melanoma) [µM] | TGI (MDA-N) [µM] | TGI (SF-295 CNS) [µM] | TGI (SNB-19 CNS) [µM] | TGI (T-47D breast) [µM] | TGI (U251 CNS) [µM] | TGI (UACC-257 melanoma) [µM] | TGI (UO-31 renal) [µM] | TGI (CAKI-1 renal) [µM] | TGI (HCC-2998 colon) [µM] | TGI (OVCAR-4 ovarian) [µM] | TGI (SK-MEL-5 melanoma) [µM] | TGI (COLO 205 colon) [µM]
1 | CC(=O)C(=[N+]=[N-])C(=O)N(C)CCC#N | > 10 | > 10 | > 10 | > 10 | > 10 | > 10 | > 10 | > 10 | > 10 | > 10 | > 10 | > 10 | > 10 |  |  |  |  | 
2 | Cc1ccc(NC(=O)/C(=N/N(C)C)C(C2OC(=O)c3ccccc32)[N+](=O)[O-])cc1 (centres undefined) | > 100 |  |  | > 100 | > 100 |  | > 100 | > 100 |  | > 100 | > 100 | > 100 | > 100 | > 100 | > 100 | > 100 | > 100 | 
3 | CC/C=C/C[C@H](O)[C@H]1C[C@H]2O[C@H](CC(=O)OC)C[C@H]2O1 | > 100 | > 100 | > 100 |  | > 100 | > 100 | > 100 | > 100 | > 100 | > 100 | > 100 |  | > 100 | > 100 | > 100 | > 100 | > 100 | > 100
4 | O=C(Nc1nnc(-c2c(Cl)c(Cl)c(Cl)c(Cl)c2-c2nc3cc(C(=O)c4ccccc4)ccc3[nH]2)o1)c1ccc(Cl)cc1 | 43.4 | > 100 | > 100 | > 100 | > 100 |  | 54.2 | 42.4 | > 100 | > 100 | > 100 | > 100 | > 100 | > 100 |  | > 100 | 39.9 | 35.1
5 | CSCCCNC(=O)c1csc(-c2csc(CCNC(=O)CNC(=O)CNC(=O)OC(C)(C)C)n2)n1 | > 100 | > 100 | > 100 | > 100 | > 100 | > 100 | > 100 | > 100 | > 100 |  | > 100 | > 100 | > 100 | > 100 | > 100 | > 100 | > 100 | > 100
6 | CN(C)c1cccc2c1C(=O)C=CC21CCc2ccc(N(C)C)c3c(N(C)C)ccc1c23 (centres undefined) | 15.3 | 17.5 | 63.1 | 41.8 | 30.2 | 24.4 | 28.6 | 43.1 | 33.4 | > 100 |  | 25.1 | 24.1 | 40 |  | 83.4 | 30.1 | 29
7 | O=S(=O)(O)c1ccc2c(N=Nc3ccc(Cl)cc3)c(O)ccc2c1 | > 100 | > 100 | > 100 | > 100 | > 100 | > 100 | > 100 | > 100 | > 100 | > 100 | > 100 | > 100 | > 100 | > 100 |  | > 100 | > 100 | > 100
8 | CC1(C)OC[C@@H](O)[C@H](Br)CO1 | > 100 | > 100 | > 100 |  | > 100 | > 100 | > 100 | > 100 | > 100 | > 100 | > 100 | > 100 | > 100 | > 100 | > 100 | > 100 |  | > 100
9 | CC1(C)CC(=O)c2c(nc3c(ccc4ccccc43)c2-c2ccc(NC(=O)CCCCC(=O)Nc3ccc(-c4c5c(nc6c4ccc4ccccc46)CC(C)(C)CC5=O)cc3)cc2)C1 |  | > 100 | 67.5 |  | 42.2 |  | 68.3 | 41.6 | > 100 | > 100 | > 100 | > 100 | 74.1 | > 100 |  |  | > 100 | 65.1
10 | COc1nc2c(c(=O)n1C)N=C(c1ccc(Cl)cc1)CC(c1ccccc1)N2 (centres undefined) | > 100 | > 100 | 69.2 | > 100 | 33.8 |  | 37.8 | 57.6 | > 100 |  | > 100 | 67.9 | > 100 | 74.5 | 35.8 | 48.5 | 38.2 | > 100
11 | CCCN1C(=O)/C(=C\c2ccc(OC)c(OC)c2)SC1=Nc1ccccc1 | > 100 |  | > 100 | > 100 | > 100 | > 100 | > 100 | > 100 | > 100 | > 100 | > 100 | > 100 | > 100 | > 100 | > 100 | > 100 | > 100 | > 100
12 | CCOC(=O)C(O)(C(=O)OCC)c1cc(C(C)(C)C)c(O)c(C(C)(C)C)c1 | > 100 | > 100 | > 100 | > 100 | > 100 | > 100 | > 100 | 52.5 | 74.6 | > 100 | > 100 | > 100 | > 100 | > 100 |  | > 100 | 32.9 | 90.1
13 | COC(=O)[C@@H]1CC(C(CN)c2cn(C(=O)OC(C)(C)C)c3ccccc23)C(=O)N1C(=O)OC(C)(C)C (some centres undefined) | 37.3 | > 100 | 53.8 |  | > 100 | 54.1 | 69.6 | 45.2 | > 100 | > 100 | > 100 | 32.2 | > 100 | 76.3 |  | 66.6 | 31.6 | 32.8
14 | N#CCN(CC#N)C1CC=CCC1N(CC#N)CC#N (centres undefined) |  | > 100 | > 100 | > 100 | > 100 | > 100 | > 100 | > 100 | > 100 | > 100 | > 100 | > 100 | > 100 | > 100 |  | > 100 | > 100 | > 100
